Measurements: PubChem BioAssay AID1996
≈ marks a conversion by molar mass, not a printed value.

Settings: buffer; pH 7.4; 200.0 µM

SMILES | solubility kinetic [µg/mL]
Cc1ccc(S(=O)(=O)NCc2ccccn2)cc1C | > 41.5
O=C(Nc1nnc2n1CCS2)c1ccc(Br)o1 | > 47.3
CN(C)C(CNC(=O)c1ccc(Br)cc1)c1ccco1 (centres undefined) | 30.4 (≈ 90.1 µM)
O=[N+]([O-])c1ccccc1/C=C/CN1CCSCC1 | 29.2 (≈ 110 µM)
O=C(/C=C/c1cccc(Cl)c1)NCc1ccccc1 | 3.4 (≈ 12.5 µM)
COC(=O)c1cc2c(=O)c3ccccc3oc2nc1C | 5.4 (≈ 20.1 µM)
Cc1cccc(C)c1NC(=O)[C@@]1(CC(=O)O)CC(/C=C/c2ccccc2)=NO1 | > 56.8
COc1ccc(S(=O)(=O)N2CCN(Cc3cccs3)CC2)cc1OC | 55.7 (≈ 146 µM)
CC(C)c1ccc(N(CC(=O)N2CCN(Cc3ccccc3)CC2)S(C)(=O)=O)cc1 | 40.5 (≈ 94.3 µM)
CCCCOC(=O)c1ccc(OC(=O)N2CCOCC2)cc1 | > 46.1
CCOc1c(C)cc(S(=O)(=O)NCc2cccnc2)c(C)c1C | 45.2 (≈ 135 µM)
O=C1CSC(c2ccccc2)N1Cc1ccccn1 (centres undefined) | > 40.6
O=C(Nc1cccc(F)c1)C1CCN(C(=O)c2ccco2)CC1 | 44.4 (≈ 140 µM)
Cn1c(SCC(=O)Nc2sccc2C(N)=O)nc2ccccc2c1=O | 3.8 (≈ 10.1 µM)
COc1ccc(C(=O)CCC(=O)Nc2cccnc2)c(OC)c1 | > 47.2
O=C(COC(=O)c1ccccc1Oc1ccccc1)NC1CC1 | > 46.7
Cc1ccc2nc(-c3ccccn3)cc(C(=O)NC(C)C(C)(C)C)c2c1 (centres undefined) | 3.2 (≈ 9.21 µM)
CC1(C)CC(NC(=O)Cc2ccccc2)CC(C)(C)N1.Cl | > 46.6
CN1CCN(C(=O)CN(C)S(=O)(=O)c2ccc(F)cc2)CC1 | 44.7 (≈ 136 µM)
O=c1c2cccnc2nc2n1CCCCC2 | > 32.3

SMILES | solubility kinetic [µg/mL]
O=C1c2cccc3cccc(c23)C(=O)N1c1cccc(O)c1 | 1.3 (≈ 4.49 µM)
COc1cc(OC)cc(C(=O)Nc2ccc(Nc3ccccc3)cc2)c1 | 2.5 (≈ 7.18 µM)
COc1cc(OC)c(C2Nc3cccc4cccc(c34)N2)c(OC)c1 | 4.4 (≈ 13.1 µM)
CN(C)S(=O)(=O)c1cccc(NC(=O)c2ccc(NS(=O)(=O)c3cccs3)cc2)c1 | 59.5 (≈ 128 µM)
COc1ccc(NC(=O)CCN2C(=O)[C@@H]3[C@H](C2=O)[C@H]2C=C[C@@H]3C2)cc1 | 46.7 (≈ 137 µM)
COc1ccc(C(=O)NCCc2cnc[nH]2)cc1OC | > 41.3
CCC(=O)c1ccc(OCC(=O)Nc2ccccc2N2CCCCC2)cc1 | < 0.4
O=C(O)CCCC(=O)Nc1ccccc1Oc1ccccc1 | > 44.9
CCN(CC)S(=O)(=O)c1ccc(C(=O)Nc2cc(S(=O)(=O)N3CCOCC3)ccc2O)cc1 | 12.2 (≈ 24.5 µM)
c1ccc(-c2nc(N3CCOCC3)sc2-c2ccccc2)cc1 | < 0.3
Cc1csc(NC(=O)c2ccc(=O)[nH]c2)n1 | > 35.3
CCOC(=O)N1CCC(NS(=O)(=O)c2ccc(C)cc2)CC1 | > 49
COc1ccc(-n2ccnc2SCC(=O)NO)cc1 | > 41.9
Cc1c(C)n(CC(O)CN(CCO)CCO)c2ccccc12.Cl (centres undefined) | > 51.4
CC1C(=O)N2CCCc3cc(S(=O)(=O)N(C)CCC#N)cc1c32 (centres undefined) | > 50
Cc1ccc(C(=O)NCCOc2ccc(Cl)cc2)cc1 | 3.4 (≈ 11.7 µM)
O=C(CS(=O)(=O)Cc1ccccc1)Nc1ccc2c(c1)OCO2 | 15.7 (≈ 47.1 µM)
COc1ccc(NC(=O)CN2C(=O)CSC2=O)cc1 | > 42
N#Cc1ccsc1NC(=O)C1=COCCO1 | > 35.4
Cc1occc1C(=O)O/N=C(\N)c1ccccc1 | 36.1 (≈ 148 µM)

SMILES | solubility kinetic [µg/mL]
CCOC(=O)CSc1ccc2ccccc2n1 | 19.5 (≈ 78.8 µM)
CC(NC(=O)CCNC(=O)c1ccco1)c1ccc(F)cc1 (centres undefined) | > 45.6
Cc1ccc(NC(=O)CSc2ncccn2)cc1S(=O)(=O)N1CCOCC1 | > 61.3
Clc1ccc(C[n+]2cc(-c3ccc(Cl)cc3)n3c2CCC3)cc1.[Cl-] | > 57
CCOc1ccc(-c2ncncc2-c2ccc(OC)c(OC)c2)c(O)c1 | 3.6 (≈ 10.2 µM)
COc1cc(C(=O)O)ccc1OCc1ccncc1 | > 38.9
COc1cc(NC(=S)N2CCCC2)cc(OC)c1 | 34.8 (≈ 131 µM)
COc1cc(OC)c2c(c1)S(=O)(=O)C(c1ccccc1)=C2N | 5.1 (≈ 16.1 µM)
CCOC(=O)CN1N=C(c2ccc(C)cc2)CCC1=O | > 41.1
O=c1c(NCCc2ccc(Cl)cc2)c(-c2ccccc2)c1=O | 2.6 (≈ 8.34 µM)
CCCc1cc(=O)[nH]c(SCC(=O)N2CCc3ccccc32)n1 | 7.6 (≈ 23.1 µM)
COc1ccc(NC(=O)c2cc([N+](=O)[O-])ccc2N2CCCCC2)cc1 | 0.3 (≈ 0.844 µM)
COc1ccccc1OCCn1c(=O)n(C)c2ccccc21 | 42.2 (≈ 141 µM)
CCCn1c2c(c(=N)c3c1CCC3)CCC2.I | > 51.6
CCOC(=O)c1[nH]c(C)c(CC(C)C)c1C | 24 (≈ 107 µM)
Cn1nccc1C(=O)N1CCOCC1 | > 29.3
O=C(CCNC(=O)c1ccco1)Nc1ccccc1 | > 38.7
COc1ccc(CC(=O)OCC(=O)NC2CCCCC2)cc1 | > 45.8
O=S(=O)(c1ccc(=S)[nH]c1)N1CCN(Cc2ccccc2)CC1 | > 52.4
